According to the METLIN SMRT retention time set (Domingo-Almenara et al. 2019):

Assay: gradient 5% acetonitrile 3 min, to 50% in 2 min, to 85% in 15 min, held 3 min, 100 µL/min
Conditions: column: Zorbax Extend-C18 2.1 x 50 mm; eluents: water / acetonitrile, 0.1% formic acid
Summary of the method: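 Pure standards were analyzed in mixtures of ~100 molecules using HPLC coupled to a quadrupole time-of-flight mass spectrometer, in both positive and negative ionization mode. Separation used a Zorbax Extend-C18 column (2.1 × 50 mm, 1.8 μm) at 100 μL/min, with water and acetonitrile each containing 0.1% formic acid. Dead and dwell volumes were 40 μL and 900 μL, and data were collected over 3 months. Retention time was read from computationally picked adduct peaks, each inspected manually.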

Row | RP-LC retention time | Compound
1 | 910 s | CCc1ccc(Nc2nc(C(=O)N3CCCCCC3)nc3ccccc23)cc1
2 | 759 s | CCCC(=O)Nc1ccc(-c2nc(Cn3cccn3)c(C)o2)cc1
3 | 589 s | O=C(NCc1cccs1)NC1CC(=O)N(C2CC2)C1 (centres undefined)
4 | 792 s | COc1ccc(NC(=O)N2CCCC(C)(C(=O)NCc3cccc(OC)c3)C2)cc1 (centres undefined)
5 | 613 s | CCOC(=O)Cn1c(C2CCCN2C(=O)CC)nc2ccccc21 (centres undefined)
6 | 962 s | Cc1ccc2[nH]cc(CCNC(=O)Nc3ccc(Cl)cc3)c2c1
7 | 974 s | Cc1ccc(N2C=C(C(=O)N3CCC(C)CC3)S(=O)(=O)c3ccccc32)cc1F
8 | 710 s | CC(C)c1ccc(-c2ccnc3c(C(=O)N4CCN(c5ccccn5)CC4)cnn23)cc1
9 | 1230 s | Cn1cc(C2=CCN(S(=O)(=O)c3ccc(C(C)(C)C)cc3)CC2)c2cccnc21
10 | 771 s | Cc1csc(-c2ccc(N3CCN(C(=O)c4cccc(C#N)c4)CC3)nc2)n1
11 | 865 s | COc1ccc(Nc2nc(C(=O)Nc3ccc4c(c3)OCCO4)cs2)c(OC)c1
12 | 939 s | CCCCn1c(=O)c2c(nc3n2CCN3c2ccc(OC)cc2)n(C)c1=O
13 | 1000 s | CCN1C(=O)CCc2cc(NS(=O)(=O)c3cccc(Cl)c3)ccc21
14 | 659 s | O=C(NCc1cccnc1)C1CCN(S(=O)(=O)c2ccc(-c3noc(C4CC4)n3)cc2)CC1
15 | 662 s | CCCNC(=O)C1CCCN(c2ccc(SCC(=O)Nc3ccc(F)c(F)c3)nn2)C1 (centres undefined)
16 | 641 s | Cn1cc(C(=O)N2CC(n3cc(COc4ccc(F)cc4)nn3)C2)cn1
17 | 736 s | O=C1C=C(NCCc2ccccc2)c2ccccc2C1=O
18 | 1080 s | CCCCOc1ccc(C(=O)NC2(c3nc(C)no3)CCCCC2)cc1
19 | 1010 s | O=c1ccc(-c2ccc(F)cc2)nn1CCc1nc(-c2ccccc2Br)no1
20 | 919 s | O=C(Cc1cccs1)N1CCc2cc(-c3ccno3)ccc21
21 | 569 s | COc1ccc(CCC(=O)N2CCn3c(C)nnc3C2)cc1
22 | 670 s | CCOC(=O)c1ccc(NC(=O)N(Cc2cccs2)C2CCN(CC)CC2)cc1

Row | RP-LC retention time | Compound
23 | 594 s | Cn1cc(S(=O)(=O)N2CCCC2)cc1C(=O)N1CCN(c2ccccn2)CC1
24 | 895 s | CCn1ccc2c(cc(C(=O)Nc3ccc(Br)c(C)c3)n2C)c1=O
25 | 946 s | COc1ccc(C)cc1NC(=O)Cn1nc2c(Oc3ccc(Cl)cc3)nccn2c1=O
26 | 862 s | N#Cc1ccc(C(=O)N2CCC(CCOCC3CC3)CC2)cc1
27 | 790 s | COc1cc2c(cc1OC)C(C(=O)Nc1ccc3c(c1)OCO3)C(c1cccs1)N(C)C2=O (centres undefined)
28 | 825 s | Cc1ccc(NC(=O)Cn2nc3c(Oc4ccccc4C)nccn3c2=O)cc1F
29 | 866 s | O=C(CCCN1C(=O)c2cccc3cccc(c23)C1=O)N1CCN(c2ccccc2)CC1
30 | 909 s | Cc1sc(-c2noc(C(C)C)n2)cc1S(=O)(=O)N1CCC(C(=O)N2CCOCC2)CC1
31 | 992 s | CCn1cc(-c2nc(C(=O)NCc3ccc(F)cc3F)cs2)c2cccnc21
32 | 596 s | Fc1ccccc1-c1nnc(CN2CCN(c3ccccn3)CC2)o1
33 | 738 s | CC(=O)N1CCc2cc(CNS(=O)(=O)c3ccc(F)cc3)ccc21
34 | 884 s | Cn1nc(-c2nnc(-c3ccccc3)o2)c2c1CCN(S(=O)(=O)c1cccc(C#N)c1)C2
35 | 560 s | Cc1nccn1-c1ccc(N2CCN(C(=O)c3cc4ccccc4o3)CC2)nn1
36 | 567 s | Cc1cc(C(=O)NCCN2CCCCC2)c2cc(Br)ccc2n1
37 | 693 s | Cc1onc2c(=O)n(CC(=O)N3CCN(c4ccccn4)CC3)nc(-c3ccc(Cl)cc3)c12
38 | 827 s | Cn1c(=O)n([C@H]2CCCN(S(=O)(=O)Cc3ccccc3)C2)c2ncccc21
39 | 615 s | CC(C)CNC(=O)N1CCCN(S(C)(=O)=O)CC1
40 | 668 s | CCOc1ccc(/C=C/c2nc(C#N)c(NCCN(C)C)o2)cc1
41 | 661 s | CCC1CCCCN1C(=O)c1cnc2nc(C)ccc2c1Nc1ccccc1OC (centres undefined)
42 | 1040 s | CCNS(=O)(=O)c1cccnc1Nc1cccc(Br)c1
43 | 589 s | COc1ccc(-c2cc(C(=O)N3CCCC3)c(C)n2C)cc1
44 | 673 s | COc1ccccc1NC(=O)N1CCN(c2cc(C)nc(N3CCCC3)n2)CC1

Row | RP-LC retention time | Compound
45 | 1050 s | O=C(Nc1ccc(F)c(F)c1)C1CCN(S(=O)(=O)c2ccc(-c3noc(C4CC4)n3)cc2)CC1
46 | 646 s | O=C1NCCCCCCN(Cc2ccc(F)cc2F)[C@H]2CCC[C@@H]12
47 | 754 s | COc1ccccc1N1CCN(C(=O)CC(C)S(=O)(=O)c2ccc3c(c2)CCN3C(C)=O)CC1 (centres undefined)
48 | 782 s | CCOc1ccccc1NC(=O)NCCc1nc2cccnc2n1C1CCCC1
49 | 780 s | COc1ccc(-c2cc(C(F)(F)F)n3ncc(C(=O)NCc4cn(C)nc4C)c3n2)cc1OC
50 | 1190 s | CC(C)Cc1noc(C2(F)CCN(S(=O)(=O)c3cccc(Cl)c3)CC2)n1
51 | 890 s | COc1ccc(N2CCN(c3cc(SCC(=O)Nc4ccc(C#N)cc4)ncn3)CC2)cc1
52 | 923 s | O=C(CC1CCCC1)N1CC(c2nc(-c3ccccc3)no2)C2(CCOCC2)C1 (centres undefined)
53 | 730 s | Cc1ccc(NC(=O)Nc2ccc3nncn3c2)cc1C
54 | 919 s | COC(=O)c1cc(OC)c(OC)cc1NC(=O)CCc1ccc(C)o1
55 | 565 s | O=C(NCCc1cccnc1)c1cn(-c2cc(N3CCOCC3)ncn2)cn1
56 | 972 s | COc1ccc(CN2C=C(C(=O)OCc3nc(C4CC4)no3)C(C)=NS2(=O)=O)cc1
57 | 785 s | Cc1ccc(C)c(NC(=O)Cn2nc3cc(C)nc(N4CCCC4)n3c2=O)c1
58 | 720 s | COc1ccc(NC(=O)N2CCC(C)(C(=O)NCc3ccc4c(c3)OCO4)CC2)c(OC)c1
59 | 1000 s | O=S(=O)(c1cccc2cccnc12)N1CCc2nc(-c3ccc(F)cc3)ncc2C1
60 | 679 s | COc1ccc(CC(=O)NCCc2cn(C)c3ncccc23)cc1Cl
61 | 812 s | COCCCNC(=O)c1ccc2cnn(Cc3ccc(Cl)cc3)c2c1
62 | 605 s | Cc1c(C)n(CC(O)CNC(C)c2ccccc2)c2ccccc12 (centres undefined)
63 | 879 s | Cc1nc(-c2csc(S(=O)(=O)N3CCC(C(=O)NC4CCCCC4)CC3)c2)no1
64 | 889 s | O=C(CCCc1nnc(C(=O)Nc2ccccc2)s1)NCCc1c[nH]c2ccc(Cl)cc12
65 | 1160 s | CCOc1ccccc1-c1noc(Cn2c(=O)n(Cc3ccccc3Cl)c(=O)c3sccc32)n1
66 | 823 s | CCCNC(=O)c1cn(-c2ncccc2-c2nc(-c3ccccc3)no2)cn1

Row | RP-LC retention time | Compound
67 | 631 s | COc1cc(C(=O)NCCNc2cc(-n3cccn3)ncn2)cc(OC)c1OC
68 | 960 s | O=S(=O)(c1cc(-c2nnc(C3CC3)o2)co1)N1CCN(c2ccccc2)CC1
69 | 611 s | O=C(CN1CCN(c2ccc(F)cc2)C1=O)NCCCN1CCCC1=O
70 | 595 s | CN(C)C(=O)CN1CCN(c2ccc(NC(=O)C(C)(C)C)c(C(=O)O)c2)CC1
71 | 773 s | CCN1C(=O)COc2cc(-c3noc(C(=O)NC4CC4)n3)ccc21
72 | 655 s | CCc1ccc(-c2cn3cc(C(=O)NC4CC4)ccc3n2)cc1
73 | 644 s | CCOCC(=O)N1CC(c2nc(CCOCC3CCOCC3)no2)C1
74 | 733 s | CCCCNC(=O)C1CCCN(c2nnc(C)c3c(C)n(-c4ccc(C)cc4)nc23)C1 (centres undefined)
75 | 638 s | O=C(NCc1ccccn1)C1CCN(S(=O)(=O)c2cc(C(=O)N3CCCCCC3)cs2)CC1
76 | 957 s | Cc1csc(-c2cc(S(=O)(=O)Nc3cc(F)ccc3Cl)cn2CC(=O)N2CCCC2)n1
77 | 872 s | CC(C)c1ccc(NC(=O)C2CCN(C(=O)C3Sc4ccccc4NC3=O)CC2)cc1 (centres undefined)
78 | 902 s | CCn1c(=O)c(N2CCN(C(=O)NCCc3ccccc3)CC2)nc2ccccc21
79 | 761 s | O=C1CCSc2ccc(S(=O)(=O)N3CCC(C(=O)NCc4ccccc4)CC3)cc2N1
80 | 663 s | O=C(NCCS(=O)(=O)N1CCN(c2ncccn2)CC1)c1cccs1
81 | 863 s | CC(C)c1noc(-c2ccnc(-n3cnc(C(=O)N4CCSCC4)c3)c2)n1
82 | 768 s | Cc1nc(C(=O)N2CC(F)(F)C[C@H]2c2nc(C3CC3)no2)co1
83 | 542 s | CNC(=O)CN(C)C(=O)C1CCCCc2nnc(C(C)C)n21 (centres undefined)
84 | 552 s | O=C(NCc1ccccn1)C1CCc2sc(C(=O)N3CCCCCC3)cc2C1 (centres undefined)
85 | 582 s | CCOCC(=O)N1C[C@H]2C[C@H](C1)[C@H]1CCCC(=O)N1C2
86 | 612 s | CC(C)c1nccn1C1CN(C(=O)C(C)c2ccccc2)C1 (centres undefined)
87 | 950 s | Cc1ccccc1CNC(=O)Cn1cccc1-c1nnc(-c2ccccc2)o1

Row | Compound | RP-LC retention time
88 | CCCCCCCCCOc1ccc2[nH]cc(CCN)c2c1 | 996 s
89 | CCN(CC)C(=O)c1ccc2c(c1)N(CC(=O)NCc1ccco1)C(=O)C1CCCCN21 (centres undefined) | 783 s
